Test results from paper PMC8967249, “Discovery of Novel HPK1 Inhibitors Through Structure-Based Virtual Screening” (Frontiers in Pharmacology, 2022).
Like-named read-outs stand apart in the source and are kept apart here. One block for each compound: values may come before it.

Assays:
WT HPK1 kinase = target: WT HPK1 kinase; set-up: method as in Johnson et al. (2019); details: WT HPK1 kinase in vitro; ref Johnson et al. (2019); read-out: inhibition constant (Ki); cited from earlier work
HPK1 = tested on: HPK1; set-up: method as in Wu et al. (2019); details: ref Wu et al. (2019); cited from earlier work
HPK1 kinase [1] = target: T1, HPK1 kinase (Homo sapiens, UniProt Q92918); assay: In vitro HPK1 kinase inhibition assay (Caliper mobility shift assay); details: for inhibition at 50 µM: read-out: Inhibition (%) 50 μM, 50 μM, duplicate, mean ± SD
T1 sequence (Q92918 whole entry): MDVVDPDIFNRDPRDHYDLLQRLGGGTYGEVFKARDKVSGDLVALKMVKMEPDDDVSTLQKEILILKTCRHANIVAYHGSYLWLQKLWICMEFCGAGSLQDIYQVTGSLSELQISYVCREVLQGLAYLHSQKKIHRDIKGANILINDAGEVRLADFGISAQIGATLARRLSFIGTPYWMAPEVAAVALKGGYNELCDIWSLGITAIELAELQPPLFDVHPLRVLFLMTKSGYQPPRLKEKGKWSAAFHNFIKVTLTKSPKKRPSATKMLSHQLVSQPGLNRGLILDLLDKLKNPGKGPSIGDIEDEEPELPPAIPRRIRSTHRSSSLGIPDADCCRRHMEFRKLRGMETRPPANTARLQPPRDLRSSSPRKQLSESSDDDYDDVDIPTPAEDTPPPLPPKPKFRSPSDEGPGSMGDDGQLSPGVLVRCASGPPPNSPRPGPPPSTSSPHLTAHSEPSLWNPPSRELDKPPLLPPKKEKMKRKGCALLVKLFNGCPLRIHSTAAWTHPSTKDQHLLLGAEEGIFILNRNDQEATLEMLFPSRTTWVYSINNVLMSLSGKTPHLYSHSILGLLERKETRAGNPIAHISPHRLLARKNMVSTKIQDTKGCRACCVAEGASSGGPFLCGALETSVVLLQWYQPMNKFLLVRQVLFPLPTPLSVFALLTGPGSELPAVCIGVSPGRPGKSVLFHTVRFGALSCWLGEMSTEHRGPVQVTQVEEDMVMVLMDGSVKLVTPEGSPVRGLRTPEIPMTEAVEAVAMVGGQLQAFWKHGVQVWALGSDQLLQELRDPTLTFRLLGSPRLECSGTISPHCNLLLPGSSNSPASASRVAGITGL
Procedure: The mixture was centrifuged at 1,000 rpm for 30 s and then mixed and incubated at room temperature for 10 min. […] The plate was incubated at room temperature for 2 h. Finally, 30 μL terminated buffer was added to terminate the kinase reaction. Conversion rate data were read with Caliper EZ ReaderⅡ. The IC50 values of concentration-dependent curves were fitted by GraphPad Prism 6.0.

SLP76 = tested on: SLP76; set-up: method as in Yu et al. (2021); details: SLP76 PBMC assay; ref Yu et al. (2021); cited from earlier work
HPK1 kinase [2] = target: T1, HPK1 kinase; set-up: purchased Invitrogen PV6357; method as in Yu et al. (2021); details: ref Yu et al. (2021); cited from earlier work

IC50 (HPK1 kinase [1]): 9.49 ± 0.54 µM
Structure (SMILES): Cc1cc(C)c2c(c1)/C(=N/Nc1ccc(C(=O)N3CCC[C@@H]3C)cc1)C(=O)N2 [V030-2005]

IC50 (HPK1 kinase [1]): 14.3 ± 1.07 µM | inhibition at 50 µM (HPK1 kinase [1]): > 60%
Structure (SMILES): CCCC[C@@H](CC)CNC(=O)c1ccc(N/N=C2\C(=O)Nc3ccccc32)cc1 [V014-4726]

IC50 (HPK1 kinase [1]): 2.93 ± 0.09 µM
Structure (SMILES): O=C1CCc2cc(NC(=O)c3n[nH]c4ccccc34)ccc2N1 [M074-2865]

IC50 (HPK1 kinase [1]): 7.55 ± 0.56 µM | inhibition at 50 µM (HPK1 kinase [1]): > 60%
Structure (SMILES): Cc1cccc(NC(=O)c2n[nH]c3ccccc23)c1 [8016-1815]

Further lines, the compound ahead of its results:

Structure (SMILES): CCN(CC)CCNC(=O)c1c(C)[nH]c(/C=C2\C(=O)Nc3ccc(F)cc32)c1C [Sunitinib]
Ki (WT HPK1 kinase): ~10 nM

Structure (SMILES): CC(C)n1ncc2cnc(Nc3cc(C4CCNC4)nc(N4CCC(F)(F)C4)n3)cc21 (centres unmarked) [GNE-1858]
IC50 (HPK1): 1.9 nM

Structure (SMILES): O=C1Nc2ccc(Cl)cc2/C1=N/NC(=O)c1cc(Br)ccc1O [2395-0114]
IC50 (HPK1 kinase [1]): 9.59 ± 0.46 µM

Structure (SMILES): COc1cccc(F)c1-c1cc2c(cn1)cnn2-c1cccc(N2CCN(C)CC2)n1 [XHS]
IC50 (SLP76): 600 nM | IC50 (HPK1 kinase [2]): 2.6 nM
